In ChEMBL document CHEMBL5724914, “Linking interpersonal differences in gut microbiota composition and drug biotransformation activity” (2024):

Assays:
[1] = (§1) The drug is tested on Z-030 corresponding to mouse gut metagenome with ENA study accession number: PRJEB37062 and ENA sample accession number: ERS12561829 for biotransformation under anaerobic condition. The drug concentrations were measured over 9 timepoints collected between 0 and 24 hours of incubation by liquid-chromatography-coupled mass spectrometry (LC–MS); conditions: 2 µM
[2] = as §1, with “Z-029” for “Z-030”, “rat” for “mouse”, “ERS12561828” for “ERS12561829”; conditions: 2 µM
[3] = as §1, with “Z-024” for “Z-030”, “pig” for “mouse”, “ERS12561823” for “ERS12561829”; conditions: 2 µM
[4] = as §1, with “Z-012” for “Z-030”, “to” for “to mouse gut”, “ERS12561812” for “ERS12561829”; conditions: 2 µM
[5] = as §1, with “Z-007” for “Z-030”, “rat” for “mouse”, “ERS12561807” for “ERS12561829”; conditions: 2 µM
[6] = as §1, with “Z-005” for “Z-030”, “to” for “to mouse gut”, “ERS12561805” for “ERS12561829”; conditions: 2 µM
[7] = as §1, with “Z-001” for “Z-030”, “ERS12561801” for “ERS12561829”; conditions: 2 µM
[8] = as §1, with “WLS-090” for “Z-030”, “human” for “mouse”, “ERS12561753” for “ERS12561829”; conditions: 2 µM
[9] = as §1, with “WLS-082” for “Z-030”, “human” for “mouse”, “ERS12561751” for “ERS12561829”; conditions: 2 µM
[10] = as §1, with “WLS-077” for “Z-030”, “human” for “mouse”, “ERS12561750” for “ERS12561829”; conditions: 2 µM
[11] = human gut metagenome, 24 h, 2 µM
[12] = human gut metagenome, 24 h, 2 µM; remark: listed apart in the source
[13] = human gut metagenome, 24 h, 2 µM; remark: listed apart in the source
[14] = human gut metagenome, 24 h, 2 µM; remark: listed apart in the source
[15] = human gut metagenome, 24 h, 2 µM; remark: listed apart in the source
[16] = human gut metagenome, 24 h, 2 µM; remark: listed apart in the source
[17] = human gut metagenome, 24 h, 2 µM; remark: listed apart in the source
[18] = human gut metagenome, 24 h, 2 µM; remark: listed apart in the source
[19] = human gut metagenome, 24 h, 2 µM; remark: listed apart in the source
[20] = human gut metagenome, 24 h, 2 µM; remark: listed apart in the source
Note: call rule not given here.

SMILES	Bacterial Biotransformation [1]	Bacterial Biotransformation [2]	Bacterial Biotransformation [3]	Bacterial Biotransformation [4]	Bacterial Biotransformation [5]	Bacterial Biotransformation [6]	Bacterial Biotransformation [7]	Bacterial Biotransformation [8]	Bacterial Biotransformation [9]	Bacterial Biotransformation [10]	Bacterial Biotransformation [11]	Bacterial Biotransformation [12]	Bacterial Biotransformation [13]	Bacterial Biotransformation [14]	Bacterial Biotransformation [15]	Bacterial Biotransformation [16]	Bacterial Biotransformation [17]	Bacterial Biotransformation [18]	Bacterial Biotransformation [19]	Bacterial Biotransformation [20]
CCN(CC)C(C)CN1c2ccccc2Sc2ccccc21 (stereo not given) [ETHOPROPAZINE]	Compound NOT metabolized	Compound NOT metabolized	Compound metabolized	Compound metabolized	Compound NOT metabolized	Compound metabolized	Compound metabolized	Compound metabolized	Compound metabolized	Compound metabolized	Compound metabolized	Compound metabolized	Compound metabolized	Compound metabolized	Compound metabolized	Compound metabolized	Compound metabolized	Compound NOT metabolized	Compound metabolized	Compound metabolized
Cc1ccc(-c2nc3ccc(C)cn3c2CC(=O)N(C)C)cc1 [ZOLPIDEM]	Compound NOT metabolized	Compound NOT metabolized	Compound NOT metabolized	Compound NOT metabolized	Compound NOT metabolized	Compound NOT metabolized	Compound NOT metabolized	Compound metabolized	Compound NOT metabolized	Compound NOT metabolized	Compound NOT metabolized	Compound metabolized	Compound NOT metabolized	Compound metabolized	Compound metabolized	Compound NOT metabolized	Compound metabolized	Compound NOT metabolized	Compound NOT metabolized	Compound metabolized
CCC(COC(=O)c1cc(OC)c(OC)c(OC)c1)(c1ccccc1)N(C)C.O=C(O)/C=C\C(=O)O (stereo not given)	Compound NOT metabolized	Compound NOT metabolized	Compound NOT metabolized	Compound NOT metabolized	Compound NOT metabolized	Compound NOT metabolized	Compound NOT metabolized	Compound NOT metabolized	Compound metabolized	Compound NOT metabolized	Compound metabolized	Compound metabolized	Compound NOT metabolized	Compound metabolized	Compound metabolized	Compound NOT metabolized	Compound metabolized	Compound NOT metabolized	Compound metabolized	Compound NOT metabolized
O=c1[nH]c2ccccc2n1C1CCN(CCCC(c2ccc(F)cc2)c2ccc(F)cc2)CC1 [PIMOZIDE]	Compound NOT metabolized	Compound NOT metabolized	Compound metabolized	Compound metabolized	Compound metabolized	Compound metabolized	Compound metabolized	Compound metabolized	Compound metabolized	Compound NOT metabolized	Compound NOT metabolized	Compound metabolized	Compound NOT metabolized	Compound metabolized	Compound NOT metabolized	Compound NOT metabolized	Compound metabolized	Compound NOT metabolized	Compound metabolized	Compound metabolized
Cc1cc2c(cc1S(N)(=O)=O)S(=O)(=O)CCC2	Compound NOT metabolized	Compound NOT metabolized	Compound NOT metabolized	Compound NOT metabolized	Compound NOT metabolized	Compound NOT metabolized	Compound NOT metabolized	Compound NOT metabolized	Compound NOT metabolized	Compound NOT metabolized	Compound NOT metabolized	Compound NOT metabolized	Compound NOT metabolized	Compound NOT metabolized	Compound NOT metabolized	Compound NOT metabolized	Compound NOT metabolized	Compound NOT metabolized	Compound NOT metabolized	Compound NOT metabolized
CC[C@@H](CO)NC(=O)[C@@H]1C=C2c3cccc4c3c(cn4C)C[C@H]2N(C)C1.O=C(O)/C=C\C(=O)O [METHYSERGIDE MALEATE]	Compound NOT metabolized	Compound NOT metabolized	Compound NOT metabolized	Compound NOT metabolized	Compound NOT metabolized	Compound NOT metabolized	Compound NOT metabolized	Compound NOT metabolized	Compound NOT metabolized	Compound NOT metabolized	Compound NOT metabolized	Compound metabolized	Compound NOT metabolized	Compound NOT metabolized	Compound NOT metabolized	Compound NOT metabolized	Compound NOT metabolized	Compound NOT metabolized	Compound NOT metabolized	Compound NOT metabolized
O=C(O)COCCN1CCN(C(c2ccccc2)c2ccc(Cl)cc2)CC1 (stereo not given) [CETIRIZINE]	Compound NOT metabolized	Compound NOT metabolized	Compound metabolized	Compound metabolized	Compound NOT metabolized	Compound metabolized	Compound NOT metabolized	Compound metabolized	Compound metabolized	Compound metabolized	Compound metabolized	Compound metabolized	Compound metabolized	Compound metabolized	Compound metabolized	Compound metabolized	Compound metabolized	Compound metabolized	Compound metabolized	Compound metabolized
